Laboratory results: the supplement of paper PMC10307832

Legend:
Experiment in all cases: relative viability (nuclei count vs DMSO), 5 days (fraction); higher = more cells survive
[1] = compound: Cc1ccc2nc(NCCN)c3ncc(C)n3c2c1 + CC(=O)Nc1cccc(-n2c(=O)n(C3CC3)c(=O)c3c(Nc4ccc(I)cc4F)n(C)c(=O)c(C)c32)c1 [Trametinib] (partner 0.02 µM)
Summary of the method: (§1)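 Relative viability equals treated-well nuclei counts divided by vehicle-well nuclei counts. Counts came from 4× images of lung cancer cell lines grown in 1536-well plates for 5 days after pin-tool dosing on the day after seeding. Dosing used one drug alone or a fixed anchor-drug dose plus five library-drug doses (not always all listed) in √10 steps, and values are medians of duplicate plates.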

[2] = compound: O=C(/C=C/c1ccccc1)NC(NC(=S)Nc1cccc2cccnc12)C(Cl)(Cl)Cl [Salubrinal] + CS(=O)(=O)N1CCN(Cc2cc3nc(-c4cccc5[nH]ncc45)nc(N4CCOCC4)c3s2)CC1 [Pictilisib] (partner 1 µM)
Summary of the method: as §1

[3] = compound: O=C(/C=C/c1ccccc1)NC(NC(=S)Nc1cccc2cccnc12)C(Cl)(Cl)Cl [Salubrinal] + O=C(c1cc(Cc2n[nH]c(=O)c3ccccc23)ccc1F)N1CCN(C(=O)C2CC2)CC1 [Olaparib] (partner 8 µM)
Summary of the method: as §1

[4] = compound: Cc1ccc2nc(NCCN)c3ncc(C)n3c2c1 + CCNC(=O)c1noc(-c2cc(C(C)C)c(O)cc2O)c1-c1ccc(CN2CCOCC2)cc1 [Luminespib] (partner 0.01 µM)
Summary of the method: as §1

| Cell Line | relative viability ([1]; first compound 0.04 µM) | relative viability ([1]; first compound 0.1265 µM) | relative viability ([1]; first compound 0.4 µM) | relative viability ([1]; first compound 1.265 µM) | relative viability ([1]; first compound 4 µM) | relative viability ([2]; first compound 0.08 µM) | relative viability ([2]; first compound 0.253 µM) | relative viability ([2]; first compound 0.8 µM) | relative viability ([2]; first compound 2.53 µM) | relative viability ([2]; first compound 8 µM) | relative viability ([3]; first compound 0.08 µM) | relative viability ([3]; first compound 0.253 µM) | relative viability ([3]; first compound 0.8 µM) | relative viability ([3]; first compound 2.53 µM) | relative viability ([3]; first compound 8 µM) | relative viability ([4]; first compound 0.04 µM) | relative viability ([4]; first compound 0.1265 µM) | relative viability ([4]; first compound 0.4 µM) | relative viability ([4]; first compound 1.265 µM) | relative viability ([4]; first compound 4 µM) |
| --- | --- | --- | --- | --- | --- | --- | --- | --- | --- | --- | --- | --- | --- | --- | --- | --- | --- | --- | --- | --- |
| HCC-78 | 0.703 | 0.672 | 0.699 | 0.527 | 0.536 | 0.195 | 0.0891 | 0.312 | 0.232 | 0.229 | 1 | 0.964 | 1 | 0.788 | 0.9 |  |  |  |  |  |
| HCC-366 | 0.385 | 0.395 | 0.369 | 0.336 | 0.284 | 0.132 | 0.143 | 0.121 | 0.151 | 0.179 | 0.459 |  | 0.401 | 0.341 | 0.357 |  |  |  |  |  |
| HCC-827 | 0.557 | 0.51 | 0.539 | 0.626 | 0.555 | 0.959 | 1.02 | 1.06 | 0.994 | 0.898 | 0.684 | 0.646 | 0.647 | 0.629 | 0.664 | 0.741 | 0.589 | 0.689 | 0.58 | 0.8 |
| HOP-62 | 0.41 | 0.374 | 0.376 | 0.387 | 0.328 | 0.509 | 0.468 | 0.681 | 0.505 | 0.691 | 0.318 | 1.34 | 0.943 | 0.456 | 0.386 | 0.916 | 0.941 | 0.648 | 0.965 | 0.913 |
| IA-LM |  |  |  |  |  | 0.353 | 0.279 | 0.357 | 0.219 | 0.188 | 0.842 | 0.83 | 0.935 | 0.704 | 0.72 |  |  |  |  |  |
| LC-2-ad | 0.927 | 0.963 | 0.881 | 0.965 | 0.86 | 0.457 | 0.448 | 0.519 | 0.385 | 0.323 | 0.677 | 0.708 | 0.729 | 0.728 | 0.709 | 0.891 | 0.947 | 1.13 | 1.04 | 0.798 |
| LCLC-97TM1 | 0.194 | 0.212 | 0.196 | 0.189 | 0.186 | 0.261 | 0.162 | 0.2 |  | 0.181 | 0.289 | 0.345 | 0.376 | 0.412 | 0.383 | 0.761 | 0.713 | 0.752 | 0.699 | 0.678 |
| LCLC-103H | 0.727 | 0.677 | 0.65 | 0.66 | 0.67 | 0.591 | 0.599 | 0.743 | 0.562 | 0.535 | 0.866 | 0.572 | 0.853 | 0.769 | 0.76 | 0.887 | 0.927 | 0.931 | 0.925 | 0.858 |
| LK-2 | 0.921 | 0.576 | 0.682 | 0.617 | 0.672 | 0.59 | 0.541 | 0.666 | 0.512 | 0.575 | 0.873 | 0.659 | 0.877 | 0.773 | 0.694 | 0.198 | 0.194 | 0.182 | 0.185 | 0.197 |
| LOU-NH91 | 0.819 | 0.792 | 0.794 | 0.787 | 0.775 | 0.541 | 0.502 | 0.576 | 0.479 | 0.53 | 0.967 | 0.908 | 0.897 | 0.9 | 0.961 | 0.342 | 0.31 | 0.31 | 0.36 | 0.318 |
| LU99A | 0.501 | 0.604 | 0.541 | 0.618 | 0.577 | 0.29 | 0.35 | 0.356 | 0.318 | 0.362 | 0.286 | 0.29 | 0.265 | 0.24 | 0.222 | 0.274 | 0.28 | 0.242 | 0.254 | 0.261 |
| LXF-289 | 0.669 | 0.629 | 0.696 | 0.645 | 0.663 | 0.871 | 0.728 | 0.829 | 0.778 | 0.731 | 1.27 | 0.918 | 1.25 | 1.14 | 1.07 | 0.633 | 0.816 | 0.653 | 0.706 | 0.618 |
| NCI-H23 | 0.444 | 0.391 | 0.384 | 0.426 | 0.308 | 0.511 | 0.583 | 0.548 | 0.442 | 0.486 | 0.359 | 0.233 | 0.36 | 0.31 | 0.309 | 0.207 | 0.227 |  | 0.201 | 0.217 |
| NCI-H522 | 0.641 | 0.753 | 0.791 | 0.719 | 0.684 |  |  |  |  |  | 0.565 | 0.648 | 0.701 | 0.686 | 0.637 | 1.26 | 1.12 | 1.04 | 1.14 | 1.17 |
| NCI-H1299 |  |  |  |  |  | 0.911 | 0.704 | 0.874 | 0.698 | 0.66 | 0.98 | 0.947 | 0.993 | 0.951 | 0.936 |  |  |  |  |  |
| NCI-H1563 |  |  |  |  |  | 0.665 | 0.586 | 0.639 | 0.623 | 0.591 |  |  |  |  |  | 0.491 | 0.509 | 0.517 | 0.466 | 0.485 |
| NCI-H1623 |  |  |  |  |  |  |  |  |  |  |  |  |  |  |  | 0.478 | 0.684 | 0.51 | 0.346 | 0.348 |
| NCI-H1648 | 0.434 | 0.433 | 0.434 | 0.419 | 0.358 |  |  |  |  |  | 0.751 | 1.03 | 0.476 | 1.02 | 0.594 |  |  |  |  |  |
| NCI-H1703 |  |  |  |  |  | 0.216 | 0.246 | 0.238 | 0.259 | 0.264 | 0.414 | 0.721 | 0.416 | 0.486 | 0.385 |  |  |  |  |  |
| NCI-H2342 | 0.822 | 0.805 | 0.821 | 0.917 | 0.849 |  |  |  |  |  | 0.456 | 0.45 | 0.455 | 0.432 | 0.497 | 0.797 | 0.638 | 0.616 | 0.719 | 0.677 |
| SW 900 |  | 0.901 | 0.827 | 0.749 | 0.621 |  |  |  |  |  | 1.04 | 1.07 | 0.892 | 0.793 | 0.801 | 0.168 | 0.161 |  | 0.149 | 0.167 |
